Assay results: patent US12552763B2, “Methods of protecting against neurodegeneration” (BioVentures, LLC, priority 2017, dated 2026)
“Also recorded” adds a separate entry of the source.

Legend:
[1] = system: C. elegans strain AM141 (Q40::YFP aggregates); test: Q40::YFP aggregate foci in C. elegans strain AM141 (Huntington-like polyglutamine aggregation model); type: in vivo; settings: for reduction of aggregate count (aggregate foci): strain AM141, Q40::YFP in muscle, FIG. 3
Source text: C. elegans (AM141) adults were imaged at 7 days of adult age and quantified for intensity (FIG. 2A) and number (FIG. 2B) of Q40::YFP aggregates after 0, 1, 3, or 6 d of exposure to 50-nM PNR-5-02. Treated worms differ from untreated worms (“Days Tx”=0) by 2-tailed t test: *P<0.01; **P<1E-4.
FIG. 3 depicts a graph showing reduction of protein aggregation in a C. elegans model of Huntington's disease or other neurodegenerative diseases featuring aggregates that contain polyglutamine tracts. Strain AM141, which expresses Q40::YFP in muscle, undergoes age-progressive accumulation of aggregate foci. PNR-5-02 analogues confer at least 30% reduction in formation of aggregate foci (****=P<0.00005 and *=P<0.01). PNR-5-18, PNR-4-44, PNR-5-58, and PNR-4-76 reduced aggregate count by ˜20%. PNR-5-02, PNR-4-87, PNR-5-56, and PNR-5-57 reduced aggregates ≥30%.
(§1) Several panels of drugs were tested for their ability to protect against formation of protein aggregates in the following model systems: (i) a cell-culture model of Alzheimer-like protein aggregation (SH-SY5Y-APPSw, a human neuroblastoma cell line expressing the Swedish mutation of Amyloid Precursor Protein (APP), and thus predisposed to form β-amyloid aggregates; (ii) C. elegans strain CL4176, a model of Alzheimer-like amyloidopathy that can be induced to express human Aβ1-42 in muscle, and declines sharply in motility 24-42 hours after induction unless protected by effective drugs; (iii) C. elegans strain CL2355, a model of Alzheimer-like amyloidopathy that expresses human Aβ1-42 in all neurons after upshift induction (as in ii, above), and consequently loses its normal chemotactic responses; (iv) C. elegans strain NL5901, a model of Parkinson's disease that expresses α-synuclein::GFP in neurons, forming fluorescent aggregates with age; aggregates are scored by number and intensity of GFP foci, or scored for neuron loss with age by dye-filling; and (v) C. elegans strain AM141, a model of Huntington-like polyglutamine aggregation, which expresses Q40::YFP (a 40-glutamine tract fused in-frame to yellow fluorescent protein) in muscle cells and accumulates aggregates during aging.

SH-SY5Y-APPSw cells = test: Thioflavin-T amyloid staining in SH-SY5Y-APPSw neuroblastoma cells; type: cell-based, human; settings: for reduction of Thioflavin-fluorescence intensity: 48 hours drug treatment, amyloid fluorescence per nucleus, P<0.0001
Description: FIG. 7 depicts a graph showing PNR-5-02 analogues reduce amyloid accumulation in human neuroblastoma cells overexpressing amyloid precursor protein (APPSw). SH-SY5Y-APPSw, human neuroblastoma cells overexpressing a mutant amyloid precursor protein (APPsw) associated with familial AD. Elevated APPSw leads to substantial formation of amyloid plaque, visualized by fluorescence microscopy after Thioflavin-T staining on day 3 of culture.
as §1
Human neuroblastoma cells (SH-SY5Y-APPsw), express the Swedish mutant of Amyloid Precursor Protein (APPsw) and therefore are predisposed to form amyloid aggregate. […] Amyloid fluorescence is then divided by the number of nuclei, to obtain relative amyloid content per cell.

C. elegans strain CL4176 = C. elegans strain CL4176 amyloidopathy model (human Aβ1-42 in muscle, motility); type: in vivo; settings: CL4176, decline in motility 24-42 hours after induction
Description: as §1

C. elegans strain NL5901 = C. elegans strain NL5901 Parkinson's disease model (α-synuclein::GFP aggregates); type: in vivo; settings: NL5901, α-synuclein::GFP foci or neuron loss
Description: as §1

C. elegans = C. elegans life span; type: in vivo
Description: FIG. 8 depicts a graph showing that PNR-5-02 increase C. elegans life span. The effect of PNR-5-02 on C. elegans life span, at different concentrations both mean and maximum life span of the nematode life span is extended by 15%.
Synchronized eggs (expected to hatch at approximately the same time) were placed on 60-mm nutrient-agar plates to which either vehicle (0.013% DMSO, v/v) for controls or PNR-5-02 (10 μM in 0.013% DMSO) was added. Worms were transferred to fresh plates daily for 7 days, and on alternate days thereafter, scoring worms as alive if they moved spontaneously or in response to gentle prodding. Worms lost for reasons other than natural death were censored (removed from mortality calculations) from that date. PNR-5-02 extended the nematode life span by 15% (FIG. 8).

BRI-Aβ42 mice = test: Sarcosyl-insoluble protein aggregates in cerebral cortex of BRI-Aβ42 mice; type: in vivo
Description: Total protein and sarcosyl-insoluble protein aggregates were prepared from cerebral cortex of […] mice, treated as in FIG. 4. Aliquots were separated on SDS-acrylamide gels and stained with Sypro Ruby (Molecular Probes). Gel lanes were scanned, and for each aggregate-protein lane the integral of intensity was normalized to the integral for total protein. *P<0.03 by 1-tailed heteroscedastic t test.
Total protein and total sarcosyl-insoluble aggregates were isolated from cerebral cortex of BRI-Aβ42 mice, sacrificed after 10 daily IP injections with PNR-5-02 (as above) or vehicle. Protein aliquots were suspended in Laemmli buffer and resolved by SDS-acrylamide gel electrophoresis, and quantitated by protein-specific fluorescent staining. Results, presented in FIG. 5 as the percent of aggregate protein after normalization to total protein from the same sample, indicate an 18% reduction in aggregates for PNR-5-02-treated mice. Larger aggregates (at the top of each gel lane) were reduced >40%.

C. elegans strain CL2355 = C. elegans strain CL2355 amyloidopathy model (human Aβ1-42 in all neurons, chemotaxis); type: in vivo; settings: CL2355, loss of chemotactic responses
Description: as §1

[2] = at different concentrations, FIG. 8
[3] = cerebral cortex, 10 daily IP injections 5.7 μmole/kg

How did the “reduction of aggregate count (aggregate foci)” value (“reduction of aggregate count” for short) [1] turn out when COc1cc(/C(C#N)=C/c2cc3ccccc3[nH]2)cc(OC)c1OC [PNR-4-44] was run?
The value was roughly 20%.

How did the “reduction of aggregate count” value [1] turn out when COc1ccc(/C(C#N)=C/c2cc3ccccc3s2)cc1 [PNR-4-76] was run?
The value was roughly 20%.

Which “reduction of Thioflavin-fluorescence intensity” value (SH-SY5Y-APPSw cells) does the source give for COc1ccc(/C(C#N)=C/c2c[nH]c3ccccc23)cc1OC [PNR-4-87] here?
Its value is 34%.

How did the “protection against formation of protein aggregates” value (shortened to “protection against formation”) (C. elegans strain CL4176) turn out when COc1cc(/C(C#N)=C\c2cc3ccccc3s2)cc(OC)c1OC [PNR-5-02] was run?
The value was “protective”.

What about the “protection against formation” value (C. elegans strain NL5901) of the same molecule?
The value was “protective”.

What about the life span extension (C. elegans; 10 μM in 0.013% DMSO, from eggs) of the same molecule?
Its life span extension is 15%.

What about the “maximum life span extension” value (C. elegans; [2]) of the same molecule?
The value was 15%.

And the “mean life span extension” value (C. elegans; [2])?
Its value is 15%.

What about the “protein aggregates in cerebral cortex (in words)” value (BRI-Aβ42 mice; FIG. 5, P<0.03 by 1-tailed heteroscedastic t test) of the same molecule?
Its value is “reduces protein aggregates”.

What about the “reduction in sarcosyl-insoluble aggregates normalized to total protein” value (BRI-Aβ42 mice; [3]) of the same molecule?
The value was 18%.

And the “reduction of larger aggregates (top of each gel lane)” value (BRI-Aβ42 mice; [3])?
The value was greater than 40%.

What about the “protection against formation” value (SH-SY5Y-APPSw cells; SH-SY5Y-APPSw, β-amyloid aggregates) of the same molecule?
Its value is “protective”.

And the “protection against formation” value (C. elegans strain CL2355)?
The value was “protective”.

And the “intensity and number of Q40::YFP aggregates” value ([1]; AM141 adults imaged at 7 days of adult age, 1 d exposure to 50-nM vs 6 d exposure)?
Its value is “as effective in reducing AM141 aggregates as 6-days exposure; also recorded: reduces Q40 aggregated in just 1 day”.

What about the “protection against formation” value ([1]; C. elegans AM141, Q40::YFP aggregates) of the same molecule?
The value was “protective”.

Which “reduction of aggregate count” value [1] does the source give for COc1cc(/C(C#N)=C/c2coc3ccccc23)cc(OC)c1OC [PNR-5-18] here?
The value was roughly 20%.

Which results are given for COc1cc(OC)cc(/C(C#N)=C/c2nc3ccccc3s2)c1 [PNR-5-58]?
reduction of Thioflavin-fluorescence intensity (SH-SY5Y-APPSw cells): 54%; reduction of aggregate count (aggregate foci) [1]: ~20%
